Assay results from US12097329B2, “Apparatus to administer drugs to mechanically ventilated patients” (Chiesi Farmaceutici S.p.A., priority 2018, dated 2024).
Where a name gives a salt, the structure may show the parent alone.

Key:
[1] = Aerosol performance by Next Generation Impactor (NGI), drug quantified by HPLC; format: physicochemical; conditions: BDP + FF 100 + 6 μg/10 mg DPI 37° C. 75% RH T-vol 500; connected to ventilation system through the connector
Method: A powder formulation was prepared according to the teaching of Examples 2 and 3 of WO 2013/110632 and loaded in the multi-dose dry powder inhaler described in WO 2016/000983. A ventilator system Monnal T75, available from Air Liquid Medical Systems […], Italy) was used. A Catheter mounth (ID 10 mm, length 17 cm) and an endotracheal catheter (ID 8 mm, length 8.5 cm) were also utilized. Other equipments were standard. The following conditions were set-up: tidal volume: 500 ml; PEEP 5 cmH2O; Flow rate: about 41 l/min; breath frequency: 15 bpm. All tests were performed at room temperature and lung temperature (about 37° C.) with in line humidification (about 75% relative humidity system). The inhaler was connected to the ventilation system through the connector of the invention. The evaluation of the aerosol performance was carried out using the Next Generation Impactor (NGI) according to the conditions reported in the European Pharmacopeia 8.5th Ed 2015, par 2.9.18, pages 309-320. After aerosolization of three doses from the inhaler device, the NGI apparatus was disassembled and the amounts of drug deposited in the stages were recovered by washing with a solvent mixture and then quantified by High-Performance Liquid Chromatography (HPLC).

[2] = as above; format: physicochemical; conditions: BDP + FF 100 + 6 μg/10 mg DPI - Release

Row | SMILES | DD (delivered dose) [1] | DD (delivered dose) [2] | EFPF (extrafine particle fraction) [1] | EFPM (extrafine FPM) [1] | FPF (fine particle fraction) [1] | FPM (fine particle mass, particle size equal to or lower than 5.0 micron) [1] | EFPF (extrafine particle fraction) [2] | EFPM (extrafine FPM) [2] | FPF (fine particle fraction) [2] | FPM (fine particle mass, particle size equal to or lower than 5.0 micron) [2]
1 | COc1ccc(CC(C)NCC(O)c2ccc(O)c(NC=O)c2)cc1 (stereo not drawn) [FF, formoterol fumarate dihydrate] | 3.84 µg | 4.64 µg | – | – | – | – | – | – | – | –
2 | CCC(=O)OCC(=O)[C@@]1(OC(=O)CC)[C@@H](C)C[C@H]2[C@@H]3CCC4=CC(=O)C=C[C@]4(C)[C@@]3(Cl)[C@@H](O)C[C@@]21C [BDP, beclometasone dipropionate] | 66.52 µg | 81.05 µg | 34.76 % on DD | 23.12 µg | 61.92 % on DD | 41.19 µg | 29.43 % on DD | 23.85 µg | 64.14 % on DD | 51.99 µg
